Values of other authors, collected in patent US5308833A, “Method for treating hepatitis B carriers with minimal disease” (SciClone Pharmaceuticals, priority 1992, dated 1994).
Where no end group is shown, it is not given here.

Tests used:
[1] = test system: hepatitis B virus
[2] = test system: lymphocyte; details: individuals suffering from chronic active hepatitis B

Question: With “thymosin α-1 (SDAAVDTSSEITTKDLKEKKEVVEEAEN; ends and bridges not checked; UniProt P06454 2-29, looked up) [28 amino acid peptide originally isolated from calf thymus thymosin fraction 5]” as the substance, how does the “hepatitis B virus DNA in serum” value ([1]; patients with chronic active hepatitis B administered the peptide) read?
Answer: The value was “cleared hepatitis B virus DNA from serum”.

Question: And the “serum HBV DNA after treatment was terminated” value ([1]; patients with chronic active hepatitis B, after treatment was terminated)?
Answer: The value was “tested persistently negative for serum HBV DNA”.

Question: What about the lymphocyte counts [2] of the same substance?
Answer: Its lymphocyte counts is “increases in lymphocyte counts”.

Question: And the “production of γ-interferon” value [2]?
Answer: Its value is “enhance production of γ-interferon”.
